This is an account of results in PubChem BioAssay AID248 (DTP/NCI, 2004).

Structures are written as SMILES. Where “and” joins values, the source holds several entries; their conditions need not be identical. Equal values may be shown once. Toxic doses and inconclusive results are not listed.

This experiment concerns L1210 leukemia ip in BDF1 mice, survival T/C. In words: NCI In Vivo Anticancer Drug Screen. Data for tumor model L1210 Leukemia (intraperitoneal) in B6D2F1 (BDF1) mice. Conditions: endpoint: mean survival time, higher = longer survival. An outline of the steps:
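Survival endpoint. Drug-treated group vs vehicle group, expressed as T divided by C. Tumor passaged by transplantation.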

[1] abbreviates: dose: 100.0 mg/kg/injection, schedule: Q04DX002 (ip), vehicle: Klucel (hydroxypropylcellulose) (HPC).
[2] abbreviates: dose: 200.0 mg/kg/injection, schedule: Q04DX002 (ip), vehicle: Klucel (hydroxypropylcellulose) (HPC).
[3] abbreviates: dose: 400.0 mg/kg/injection, schedule: Q04DX002 (ip), vehicle: Klucel (hydroxypropylcellulose) (HPC).
The mark [4] stands for this setting: dose: 100.0 mg/kg/injection, schedule: Q01DX001 (ip), vehicle: saline.
[5] abbreviates: dose: 100.0 mg/kg/injection, schedule: Q04DX003 (ip), vehicle: saline.
The mark [6] stands for this setting: dose: 200.0 mg/kg/injection, schedule: Q04DX003 (ip), vehicle: saline.
The mark [7] stands for this setting: dose: 100.0 mg/kg/injection, schedule: Q01DX009 (ip), vehicle: Klucel (hydroxypropylcellulose) (HPC).
Setting [8] is: dose: 200.0 mg/kg/injection, schedule: Q01DX009 (ip), vehicle: Klucel (hydroxypropylcellulose) (HPC).
[9] abbreviates: dose: 400.0 mg/kg/injection, schedule: Q01DX009 (ip), vehicle: Klucel (hydroxypropylcellulose) (HPC).
The mark [10] stands for this setting: dose: 75.0 mg/kg/injection, schedule: Q01DX001 (ip), vehicle: saline.
Where [11] appears, read: dose: 150.0 mg/kg/injection, schedule: Q01DX001 (ip), vehicle: saline.
The mark [12] stands for this setting: dose: 12.5 mg/kg/injection, schedule: Q04DX003 (ip), vehicle: saline.
[13] abbreviates: dose: 25.0 mg/kg/injection, schedule: Q04DX003 (ip), vehicle: saline.

For the molecule `CCOC(=O)CNC(=O)Oc1cc(C)c(Cl)cc1C`, the T/C reads like this: (dose: 100.0 mg/kg/injection, schedule: Q01DX001 (ip), vehicle: carboxymethylcellulose (CMC)) 100 % of control and 110 % of control; (dose: 100.0 mg/kg/injection, schedule: Q01DX009 (ip), vehicle: carboxymethylcellulose (CMC)) 89 % of control; (dose: 100.0 mg/kg/injection, schedule: Q04DX002 (ip), vehicle: carboxymethylcellulose (CMC)) 93 % of control and 96 % of control; (dose: 100.0 mg/kg/injection, schedule: Q04DX003 (ip), vehicle: carboxymethylcellulose (CMC)) 101 % of control and 90 % of control; (dose: 200.0 mg/kg/injection, schedule: Q01DX001 (ip), vehicle: carboxymethylcellulose (CMC)) 106 % of control and 109 % of control; (dose: 200.0 mg/kg/injection, schedule: Q01DX009 (ip), vehicle: carboxymethylcellulose (CMC)) 95 % of control. For the same molecule, the T/C (dose: 200.0 mg/kg/injection, schedule: Q04DX002 (ip), vehicle: carboxymethylcellulose (CMC)) is 98 % of control and 99 % of control; the T/C (dose: 200.0 mg/kg/injection, schedule: Q04DX003 (ip), vehicle: carboxymethylcellulose (CMC)) was 94 % of control and 103 % of control; the T/C (dose: 400.0 mg/kg/injection, schedule: Q01DX001 (ip), vehicle: carboxymethylcellulose (CMC)) was 102 % of control and 103 % of control; the T/C (dose: 400.0 mg/kg/injection, schedule: Q01DX009 (ip), vehicle: carboxymethylcellulose (CMC)) was 100 % of control; the T/C (dose: 400.0 mg/kg/injection, schedule: Q04DX002 (ip), vehicle: carboxymethylcellulose (CMC)) is 95 % of control and 99 % of control; the T/C (dose: 400.0 mg/kg/injection, schedule: Q04DX003 (ip), vehicle: carboxymethylcellulose (CMC)) is 97 % of control and 87 % of control.
On to `NC(=O)c1nnn(Cc2ccccc2)c1C(N)=O`, for which the T/C reads like this: under setting [1], 104 % of control; under setting [2], 96 % of control; under setting [3], 101 % of control.
Regarding `O=[N+]([O-])c1ccc(F)c(Cl)c1`, the T/C was 98 % of control (dose: 100.0 mg/kg/injection, schedule: Q01DX009 (ip), vehicle: other); 105 % of control (dose: 100.0 mg/kg/injection, schedule: Q04DX003 (ip), vehicle: other); 100 % of control (dose: 200.0 mg/kg/injection, schedule: Q04DX003 (ip), vehicle: other); 90 % of control (dose: 400.0 mg/kg/injection, schedule: Q04DX003 (ip), vehicle: other).
As to `ClC1=C(Cl)C2(Cl)C(Cl)CC1(Cl)C2(Cl)Cl` (configuration not stated), the T/C was 97 % of control under setting [4]; 110 % of control under setting [5]; 90 % of control (dose: 200.0 mg/kg/injection, schedule: Q01DX001 (ip), vehicle: saline); 96 % of control under setting [6]; 97 % of control (dose: 400.0 mg/kg/injection, schedule: Q01DX001 (ip), vehicle: saline).
As to `CN(C)CCOC(=O)c1ccc(N)cc1`, the T/C is, setting by setting: under setting [5], 96 % of control; under setting [6], 98 % of control.
As to `O=C(NC(=S)Nc1ccc(S(=O)(=O)c2ccc(NC(=S)NC(=O)c3ccccc3)cc2)cc1)c1ccccc1`, the T/C reads like this: under setting [7], 102 % of control; under setting [1], 94 % of control; under setting [8], 94 % of control; under setting [2], 94 % of control; under setting [9], 91 % of control; under setting [3], 102 % of control.
With `Cn1ncc2c(N)[nH]nc21`, the T/C runs as follows: under setting [10], 107 % of control; under setting [11], 90 % of control; (dose: 300.0 mg/kg/injection, schedule: Q01DX001 (ip), vehicle: saline) 98 % of control.
`CN(C)c1ccc(/C=C/c2nc3ccc([N+](=O)[O-])cc3[nH]2)cc1`: the T/C (dose: 50.0 mg/kg/injection, schedule: Q01DX009 (ip), vehicle: Klucel (hydroxypropylcellulose) (HPC)) was 97 % of control; the T/C under setting [7] is 97 % of control; the T/C (dose: 100.0 mg/kg/injection, schedule: Q04DX003 (ip), vehicle: Klucel (hydroxypropylcellulose) (HPC)) was 97 % of control; the T/C under setting [8] was 92 % of control; the T/C (dose: 200.0 mg/kg/injection, schedule: Q04DX003 (ip), vehicle: Klucel (hydroxypropylcellulose) (HPC)) was 102 % of control; the T/C under setting [9] was 94 % of control. Further, under “dose: 400.0 mg/kg/injection, schedule: Q04DX003 (ip), vehicle: Klucel (hydroxypropylcellulose) (HPC)”, the T/C was 103 % of control.
Consider `CCN=C(NCC)c1ccc(NC(=O)c2ccc(C(=O)Nc3ccc(C(=NCC)NCC)cc3)cc2)cc1`, for which the T/C was 98 % of control (dose: 7.5 mg/kg/injection, schedule: Q01DX010 (oral), vehicle: saline); 204 % of control (dose: 7.5 mg/kg/injection, schedule: Q01DX Z (ip), vehicle: saline); 95 % of control (dose: 15.0 mg/kg/injection, schedule: Q01DX010 (oral), vehicle: saline); 106 % of control and 109 % of control (dose: 15.0 mg/kg/injection, schedule: Q01DX Z (ip), vehicle: saline); 91 % of control (dose: 30.0 mg/kg/injection, schedule: Q01DX010 (oral), vehicle: saline); 98 % of control (dose: 125.0 mg/kg/injection, schedule: Q01DX Z (oral), vehicle: saline). Also, the T/C reads like this: (dose: 125.0 mg/kg/injection, schedule: Q## X010 (oral), vehicle: saline) 108 % of control; (dose: 250.0 mg/kg/injection, schedule: Q01DX Z (oral), vehicle: saline) 96 % of control; (dose: 250.0 mg/kg/injection, schedule: Q## X010 (oral), vehicle: saline) 123 % of control; (dose: 500.0 mg/kg/injection, schedule: Q01DX Z (oral), vehicle: saline) 109 % of control.
Consider `CCNC(=O)N1CCN(c2ccc(Cl)cc2)CC1`, for which the T/C is 101 % of control (dose: 40.0 mg/kg/injection, schedule: Q04DX003 (ip), vehicle: saline); 97 % of control under setting [10]; 98 % of control (dose: 75.0 mg/kg/injection, schedule: Q04DX003 (ip), vehicle: saline); 101 % of control under setting [11]; 95 % of control (dose: 150.0 mg/kg/injection, schedule: Q04DX003 (ip), vehicle: saline).
In the case of `O=[N+]([O-])c1ccc(C[n+]2ccc3ccccc3c2)cc1`, the T/C (dose: 12.5 mg/kg/injection, schedule: Q01DX009 (ip), vehicle: saline) was 96 % of control; the T/C under setting [12] is 97 % of control; the T/C (dose: 25.0 mg/kg/injection, schedule: Q01DX009 (ip), vehicle: saline) was 95 % of control; the T/C under setting [13] is 92 % of control; the T/C (dose: 50.0 mg/kg/injection, schedule: Q01DX009 (ip), vehicle: saline) was 101 % of control; the T/C (dose: 50.0 mg/kg/injection, schedule: Q04DX003 (ip), vehicle: saline) is 92 % of control.
`CCOC(=O)NC1=NCC(C)(C)S1`: the T/C under setting [10] was 97 % of control.
On to `COC(=O)C(C)(C)O`, for which the T/C reads like this: (dose: 100.0 mg/kg/injection, schedule: Q01DX009 (ip), vehicle: saline) 102 % of control; under setting [5], 104 % of control; (dose: 200.0 mg/kg/injection, schedule: Q01DX009 (ip), vehicle: saline) 102 % of control; under setting [6], 100 % of control; (dose: 400.0 mg/kg/injection, schedule: Q01DX009 (ip), vehicle: saline) 97 % of control; (dose: 400.0 mg/kg/injection, schedule: Q04DX003 (ip), vehicle: saline) 104 % of control.
Regarding `O=C1C(Br)=C(Br)C(=O)c2ccccc21`, the T/C was 106 % of control (dose: 50.0 mg/kg/injection, schedule: Q01DX001 (ip), vehicle: saline) and 110 % of control under setting [4].
With `CC(=O)c1ccc2c(c1)CCN2`, the T/C under setting [7] was 91 % of control and the T/C under setting [8] was 91 % of control.
For `CS(=O)(=O)c1ccc2nnnn2n1`, the T/C (dose: 6.25 mg/kg/injection, schedule: Q04DX003 (ip), vehicle: saline) is 100 % of control; the T/C under setting [12] is 103 % of control; the T/C under setting [13] was 100 % of control.
